Assay results published in the NIST ThermoML archive (doi:10.1021/je0604232).

Experiment: molar heat capacity at constant pressure; xn = mol fraction of the nth substance listed
Conditions: 101 kPa, Liquid

NCCNCCO [N-(2-aminoethyl)ethanolamine] + O
molar heat capacity at constant pressure [J/K/mol]
Conditions | x1 = 0.0999 | x1 = 0.1999 | x1 = 0.2995 | x1 = 0.4 | x1 = 0.5002 | x1 = 0.5997 | x1 = 0.7011 | x1 = 0.8003 | x1 = 0.8979 | x1 = 1
303.15 K | 100 | 121 | 141 | 161 | 181 | 201 | 221 | 240 | 258 | 279
308.15 K | 103 | 125 | 145 | 165 | 185 | 205 | 226 | 245 | 263 | 284
313.15 K | 104 | 127 | 147 | 167 | 187 | 207 | 227 | 247 | 265 | 285
318.15 K | 106 | 129 | 150 | 170 | 190 | 209 | 229 | 249 | 266 | 286
323.15 K | 107 | 131 | 152 | 172 | 192 | 211 | 231 | 250 | 267 | 287
328.15 K | 110 | 134 | 155 | 175 | 195 | 214 | 233 | 252 | 269 | 289
333.15 K | 112 | 137 | 158 | 178 | 197 | 216 | 235 | 254 | 271 | 290
338.15 K | 116 | 141 | 162 | 181 | 201 | 219 | 238 | 257 | 273 | 292
343.15 K | 120 | 146 | 167 | 185 | 204 | 223 | 241 | 260 | 275 | 293
348.15 K | 124 | 152 | 172 | 189 | 208 | 227 | 244 | 262 | 277 | 295
353.15 K | 130 | 158 | 177 | 194 | 213 | 231 | 248 | 265 | 279 | 296
